Data set [1] is described as follows: Storage stability of the product. It is filed as physicochemical. The conditions noted are these: stored at −20° C. An excerpt:
The process of the invention begins with spawning, which is induced by injection of KCl (0.5 M) into the perivisceral coelom. The induced urchin females are deposited on a smaller diameter vessel, which contains filtered and sterile seawater, where the eggs are received. The collected eggs are filtered, preferably using a fine sieve of pore size 1/32 inches (0.079375 centimeters) to remove impurities. Afterwards it is washed with filtered and sterile seawater. The excess water is subsequently removed by decanting the eggs. Then the eggs are dried at 60-80° C. for 24-72 hours, and are ground to a fine powder, which is cleaned by passing through a sieve of pore size 1/120 inches (0.021 centimeters). The product is then extracted by mixing the powder with methanol or ethanol at a proportion of 1:30 v/v under constant agitation. It is further filtered to remove the egg debris and evaporated under vacuum at 55° C. to 1/10 of the initial volume. The resulting extract is purified by chromatography with a C18 RP column, elution with 30-40% methanol to extract mainly spinochrome E, and finally an elution with 100% ethanol for the extraction of EqA.

Data set [2] can be described thus: DPPH radical capture assay (antioxidant activity). An excerpt: The antioxidant activity of EqA is dependent on the concentration of the pigment, the pH and the concentration of calcium. In the absence of calcium, the antioxidant activity is observed only at alkaline pH, but in the presence of calcium, the antioxidant activity is observed at alkaline pH and neutral pH, by the formation of stable semiquinone-calcium complexes (Levedeb et al., Archives of Biochemistry and Biophysics (2003) 413: 191-198). The invention is illustrated in the following examples:
The antioxidant activity of the purified extract and equinochrome A was evaluated by the DPPH radical capture assay (2, 2-diphenyl-1-picryihydracil) (Shankarlal et al., (2011) Am-Euras, J. Sci. Res. 6:178-181).

Another data set has as its system S. aureus. The experiment in a line: Antibacterial activity (MIC) against clinical isolates. It is filed as cell-based. The settings on record: Staphylococcus aureus, resistant to penicillin. From the text: (§1) In order to test the antibiotic activity of these compounds, the inventors studied the antibacterial activity, measured as minimum inhibitory concentration (MIC), of the black sea urchin (Tetrapygus niger) extract enriched in equinochrome A (85% purity) and the purified EqA.

The next data set deals with Klebsiella pneumoniae. Described as above. The class given is cell-based. The conditions noted are these: resistant to ampicillin, aztreonam, cephalothin, cefepime, cefotaxime, ceftazidime.
From the text: as §1

Another data set relates to Klebsiella oxytica. The description is as above. It is filed as cell-based. The settings on record: resistant to ampicillin.
From the text: as §1

For another data set, the system named is E. coli. The description is as above. The settings on record: Escherichia coli. The class given is cell-based.
From the text: as §1

For a further data set, the system named is Pseudomona aeruginosa. The data set is described as above. The class given is cell-based.
From the text: as §1

SMILES strings stand for the structures. In brackets after ≈: the same amount, converted by molar mass. Where two headings read alike, the source gives them in different places.

Consider `CCc1c(O)c(O)c2c(c1O)C(=O)C(O)=C(O)C2=O` [EqA, 6-ethyl-2,3,5,7,8-pentahydroxy-1,4-naphthoquinone], for which, in data set [1], the storage stability result was “high stability for months”. The same compound displayed an EC50 in data set [2] of 13 µM. Also, in data set [2], the “antioxidant activity compared with reference antioxidants” value was “greater than the antioxidant activities of α-tocopherol and ascorbic acid”. Further, the MIC worked out at 8 µg/mL (≈ 30.1 µM) against S. aureus (pH 5, pH 5, hemocultivo isolate (1st, r13)); 8 µg/mL (≈ 30.1 µM) against S. aureus (pH 5, pH 5, hemocultivo isolate (2nd, r14)); 8 µg/mL (≈ 30.1 µM) with S. aureus (pH 5, pH 5, hemocultivo isolate (3rd, r15)); 32 µg/mL (≈ 120 µM) with S. aureus (pH 5, pH 5, hemocultivo isolate, oxacillin, erythromycin, clindamycin, ciprofloxacin); 8 µg/mL (≈ 30.1 µM) in the data set with S. aureus (pH 5, pH 5, isolate from tracheal aspirate); 32 µg/mL (≈ 120 µM) in the data set on S. aureus (pH 7, pH 7, hemocultivo isolate (1st, r13)). The MIC with S. aureus (pH 7, pH 7, hemocultivo isolate (2nd, r14)) was 32 µg/mL (≈ 120 µM); against S. aureus (pH 7, pH 7, hemocultivo isolate (3rd, r15)), 32 µg/mL (≈ 120 µM); in the data set on S. aureus (pH 7, pH 7, hemocultivo isolate, oxacillin, erythromycin, clindamycin, ciprofloxacin) it was 32 µg/mL (≈ 120 µM); against S. aureus (pH 7, pH 7, isolate from tracheal aspirate) it was 32 µg/mL (≈ 120 µM); in the data set on Klebsiella pneumoniae (Klebsiella pneumoniae, pH 5, urine isolate, ertapenem, nitrofurantoin, read-out: MIC), 64 µg/mL (≈ 240 µM); in the data set with Klebsiella pneumoniae (Klebsiella pneumoniae, pH 7, urine isolate, ertapenem, nitrofurantoin, read-out: MIC), above 64 µg/mL. Besides, the MIC was 64 µg/mL (≈ 240 µM) in the data set on Klebsiella pneumoniae (pH 5, hemocultivo isolate, ciprofloxacin, chloramphenicol, colistin, cotrimoxazole, gentamicin); 64 µg/mL (≈ 240 µM) with Klebsiella pneumoniae (pH 5, urine isolate, nitrofurantoin); above 64 µg/mL against Klebsiella pneumoniae (pH 7, hemocultivo isolate, ciprofloxacin, chloramphenicol, colistin, cotrimoxazole, gentamicin); above 64 µg/mL in the data set on Klebsiella pneumoniae (pH 7, urine isolate, nitrofurantoin); 64 µg/mL (≈ 240 µM) against Klebsiella oxytica (pH 5, hemocultivo isolate); above 64 µg/mL in the data set with Klebsiella oxytica (pH 7, hemocultivo isolate). Besides, the minimal inhibitory concentration (MIC) against E. coli (pH 5, pH 5, hemocultivo isolate, antibiotic resistance —) is 32 µg/mL (≈ 120 µM); in the data set with E. coli (pH 5, pH 5, hemocultivo isolate, resistant to ampicillin, chloramphenicol, cotrimoxazole), 32 µg/mL (≈ 120 µM); against E. coli (pH 5, pH 5, urine isolate, resistant to ampicillin, aztreonam, cefepime, cefotaxime, ceftazidime, ciprofloxacin), 32 µg/mL (≈ 120 µM); against E. coli (pH 7, pH 7, hemocultivo isolate, antibiotic resistance —), above 64 µg/mL; in the data set on E. coli (pH 7, pH 7, hemocultivo isolate, resistant to ampicillin, chloramphenicol, cotrimoxazole), above 64 µg/mL; in the data set with E. coli (pH 7, pH 7, urine isolate, resistant to ampicillin, aztreonam, cefepime, cefotaxime, ceftazidime, ciprofloxacin), 64 µg/mL (≈ 240 µM). The MIC is 32 µg/mL (≈ 120 µM) in the data set with Pseudomona aeruginosa (pH 5, pH 5, aspirado traqueal isolate, resistant to ampicillin, aztreonam, cefepime, ceftazidime, imipenem, meropenem); 64 µg/mL (≈ 240 µM) in the data set on Pseudomona aeruginosa (pH 5, pH 5, aspirado traqueal isolate, resistant to ampicillin, aztreonam, ceftazidime, imipenem, meropenem); 32 µg/mL (≈ 120 µM) in the data set with Pseudomona aeruginosa (pH 5, pH 5, aspirado traqueal isolate, resistant to ampicillin, ciprofloxacin, imipenem, meropenem); 32 µg/mL (≈ 120 µM) with Pseudomona aeruginosa (pH 5, pH 5, cateter isolate, resistant to ampicillin, aztreonam, cefepime, ceftazidime, imipenem, meropenem); 32 µg/mL (≈ 120 µM) with Pseudomona aeruginosa (pH 5, pH 5, hemocultivo isolate, resistant to cefepime, ceftazidime, ciprofloxacin, gentamicin); above 64 µg/mL against Pseudomona aeruginosa (pH 7, pH 7, aspirado traqueal isolate, resistant to ampicillin, aztreonam, cefepime, ceftazidime, imipenem, meropenem). Also, the MIC was above 64 µg/mL with Pseudomona aeruginosa (pH 7, pH 7, aspirado traqueal isolate, resistant to ampicillin, aztreonam, ceftazidime, imipenem, meropenem); above 64 µg/mL in the data set on Pseudomona aeruginosa (pH 7, pH 7, aspirado traqueal isolate, resistant to ampicillin, ciprofloxacin, imipenem, meropenem); above 64 µg/mL with Pseudomona aeruginosa (pH 7, pH 7, cateter isolate, resistant to ampicillin, aztreonam, cefepime, ceftazidime, imipenem, meropenem); above 64 µg/mL in the data set on Pseudomona aeruginosa (pH 7, pH 7, hemocultivo isolate, resistant to cefepime, ceftazidime, ciprofloxacin, gentamicin).
On to `O=C1O[C@H]([C@@H](O)CO)C(O)=C1O` [ascorbic acid, reference compound], for which it took 45 µM to reach a half-maximal effect in data set [2] (EC50).
Consider `Cc1c(C)c2c(c(C)c1O)CC[C@@](C)(CCC[C@H](C)CCC[C@H](C)CCCC(C)C)O2` [α-tocoferol, reference compound], for which, in data set [2], the EC50 was 100 µM. This EC50 lies about 2.2-fold higher than the previous one.

By EC50 is commonly meant the concentration needed to bring the measured effect to its halfway point. Higher therefore signals a less potent agent. As usually defined, the MIC is the lowest concentration that inhibits growth of the organism.

The values above are taken from US11007155B2, “Method for producing a sea urchin extract enriched with 1,4-polyhydroxylated naphthoquinones with antimicrobial and antioxidant activity” (Universidad Técnica Federico Santa María, priority 2016, dated 2021).
